The text below walks through data of US20250237648A1, “BACTERIAL BIOSENSORS FOR DIAGNOSING AND TREATING INFLAMMATION” (Baylor College of Medicine, priority 2022, published 2025).

“And” between values parts separate entries of the source, which are not always exact repeats. Equal values may be shown once. Read-outs that look alike come from different tables or passages of the source.

Holding throughout (type): cell-based, Escherichia coli Nissle 1917
Data set [1] deals with ykgMO, ent and abt genes. The data set can be described thus: RT-qPCR verification of calprotectin-responsive genes with TPEN. Particulars: 30 μM TPEN, LB media, 30 minutes. From the text:
FIGS. 1A-1K. Selection of the ykgMO promoter to sense calprotectin levels and sensitivity of ygkMO, ent and abt biosensors to metal starvation. 1A: Sensitivity of ykgMO (50S Ribosomal Protein L36/L31 type B) promoter (Pykg) biosensor to calprotectin; 1B-ID: Sensitivity of ent (1B), abt (1C), and ykg (1D) promoter constructs to TPEN in M9 media detected by Flow Cytometer; 1E: Minimum inhibitory concentration (MIC) of calprotectin on E. coli Nissile1917 (referred to EcN) in LB media; IF: Upregulation of calprotectin responsive promoters with TPEN induction in LB media verified by RT-qPCR; 1G: Sensitivity of ent promoter construct to TPEN in M9 media detected by plate reader; 1H: Sensitivity of abt promoter construct to TPEN in M9 media detected by plate reader; 1I: Sensitivity of ykg promoter construct to TPEN in M9 media detected by plate reader; 1J: Upregulation of calprotectin responsive ykgMO) promoter with TPEN induction in M9 media verified by RT-qPCR; 1K: Quenching of different ions on Pykg biosensor (EcN/pBSI0). Equimolar (1.5 μM) or 10×-excess (15 μM) of Zn^2+, Mn^2+, and Fe^2+ were added to Pykg biosensor co-cultured with 40 μg/mL calprotectin in M9 media. 1.5 μM (equivalent metal binding capacity of 40 μg/mL calprotectin), 3 μM, or 30 μM co-cultured with E. coli Nissle 1917 biosensors in pure culture. Calprotectin only-N=9. […]
(In general: Quantitative PCR measures a nucleic acid by following its amplification.)

The subject of data set [2] is Pykg, Pent and Pabt promoter constructs. The data set can be described thus: TPEN induction of promoter-sfgfp constructs (fluorescence). The conditions noted are these: M9 minimal medium. As for the experimental part:
Selection of the ykgMO promoter to sense calprotectin levels. To assess the ykg, ent, and abt promoters as potential sensors of the metal sequestration activity of calprotectin, Pykg, Pent, and Paht were cloned into plasmid pColE1 driving the expression of superfolder GFP (sfgfp). Sensor fluorescence was next analyzed in M9 minimal medium and used metal chelator TPEN to mimic the metal depletion of calprotectin.
EcN biosensor constructs were grown to early log phase (˜0.1 OD600) in M9 media with glucose, and were back diluted to 0.01 OD600 and then grown for ˜4 hours aerobically, until OD600 reached ˜0.15. At this point, cells were kept on ice until analysis on a Becton Dickinson FACScan flow cytometer. Flow cytometry runs were performed in 96 well plates. Briefly, 10-40 μL of cells were added to 1 mL of PBS sheath fluid and run through the flow cytometer for a total of 10000 events. Cells were thresholded on forward/side scatter, and .fsc files were analyzed with the FlowCal software. In short, FlowCal identifies the densest region of cells on the associated scatterplot, and analyzes the fluorescent output of 30% of the cells in this region so as to evaluate a homogenous dataset and remove possible outliers. […] In this case, sfGFP output is reported as molecules of equivalent fluorophores (MEF), and was evaluated on the FL1 channel. […]

The test system of data set [3] is Pykg biosensor (EcN/pBSI0).
Method: To validate that the Pykg is sensitive to zinc but not other metals bound by calprotectin, BSI0 was incubated with 40 μg/mL of calprotectin with or without supplementation of an equimolar amount of zinc, manganese, or iron.
Mixes were similar to the calprotectin induction assays with the addition of zinc sulfate, manganese sulfate, or iron chloride. Concentrations of metals were added in excess of 1× and 10× the binding capacity of 40 μg/mL (1.5 μM) calprotectin. In total, 4 μM and 40 μM of zinc and iron were added, and 2 μM and 20 μM of manganese was added.
Data set [4] deals with ykg promoter. The data set can be described thus: Zur expression optimization for low basal expression of ykg promoter. Particulars: zur driven by constitutive promoter on same plasmid. The text has this:
To increase the dynamic range of the Pykg expression, the high level of basal expression when the operon is not activated by zinc limitation needed to be reduced. It was considered that the basal level of expression was high because the ykg promoter was being expressed from a multicopy plasmid while the Zur repressor was being synthesized from the chromosome, altering their normal stoichiometry. To identify the optimal level of Zur to reduce the basal expression while maintaining the ability to respond to zinc limitation, several constructs were tested in which the zur gene was driven by constitutive promoters of increasing strength on the same plasmid as the ykg promoter (FIG. 2A) . . . . […] Other promoters were either too weak (J23113) to reduce the basal level of promoter expression or were too strong (J23100, J23110) to allow induction of the Pykg upon zinc depletion. Additional studies utilized the J23109 promoter construct, now denoted as pBSI1 (bacterial sensor of inflammation).
To reduce the background of Pygk biosensor, zinc binding transcription factor Zur was inserted into pColE-based sensor construct (pColE1-Pykg-sfgfp) under the control of different constitutive expresison promoters. […] The sensitivity and expression strength of new biosensor constructs was analyzed through fluorescence detection and RT-qPCR.

The subject of data set [5] is E. coli Nissle 1917 (EcN). The data set can be described thus: Minimum inhibitory concentration of calprotectin on EcN. The conditions noted are these: 10^4 EcN cells, overnight, LB media, two-fold dilutions. As to the method: Identification of E. coli Nissle promoters responsive to calprotectin. […] Currently, fecal calprotectin levels are used as a non-invasive way of monitoring intestinal inflammation, however compliance with such tests is low due to the need for patients to handle their own feces. Therefore, the development of an ingestible bacterial biosensor that would sense and report intestinal inflammation was contemplated. […] To do this the minimal inhibitory concentration of calprotectin incubated with EcN in vitro was first identified.
(§1) It was considered that exposing EcN to a sub-inhibitory concentration of calprotectin that was near the MIC would yield the best opportunity to identify physiologically relevant promoters that respond to calprotectin. The minimal inhibitory concentration of calprotectin (250 μg/mL) was first identified using EcN growth in LB media (FIG. 1E). Therefore, EcN were grown into the mid-exponential phase in LB media and then treated cultures with 125 µg/mL of calprotectin for 30 minutes or without calprotectin as a negative control. As an additional control, a mutant version was used of calprotectin that lacks the ability to bind metals, rendering the protein unable to carry out nutritional immunity.
To explore biosensor promoters that can respond to calprotectin, the transcriptome of EcN treated with the sub-inhibitory amount of calprotectin was analyzed. […]

The subject of data set [6] is ykgMO operon (50S Ribosomal Protein L36/L31 type B). The data set can be described thus: RNA sequencing of calprotectin-treated EcN: ykgMO operon. Particulars: 125 μg/mL calprotectin 30 min, LB, over untreated cells. As for the experimental part: as §1
(§2) For transcriptome analysis, EcN cells were grown overnight, and then back-diluted 1:100 into 5 mL of LB broth. When cells were grown up to the log phase, the sub-inhibitory amount of calprotectin was added to the cultures at a final concentration of 125 μg/mL. […] RNA was quantified and tested for purity using a Denovix spectrophotometer (Denovix, Wilmington, Delaware). RNA-seq was performed by Applied Biological Materials (ABM) (Richmond, British Columbia, Canada) on an Illumina NextSeq sequencer, at an average of 5 million reads per sample. rRNA depletion and quality check were also performed by ABM. […]

In data set [7] the test system is siderophore enterobactin operon (ent). The data set can be described thus: RNA sequencing of calprotectin-treated EcN: ent operon. Particulars: 125 μg/mL calprotectin 30 min, LB, over untreated cells. As for the experimental part: as §1, §2
The subject of data set [8] is ATP-binding cassette transporter cluster (abt). The data set can be described thus: RNA sequencing of calprotectin-treated EcN: abt cluster. Particulars: 125 μg/mL calprotectin 30 min, LB, over untreated cells. As for the experimental part: as §1, §2
Where [9] appears, read: 40 μg/mL calprotectin, equimolar metal, M9.

For the molecule `c1ccc(CN(CCN(Cc2ccccn2)Cc2ccccn2)Cc2ccccn2)nc1` [TPEN, N,N,N′, N′-tetrakis(2-pyridinylmethyl)-1,2-ethanediamine], the “gene upregulation by RT-qPCR” value in data set [1] is recorded as “upregulated”. Further, the “activation of promoter constructs (sfGFP fluorescence) compared to control” value in data set [2] is on record as 2-3 fold.

Turning to manganese sulfate [Mn], the “repression of BSI0 activation in the presence of calprotectin” value (“repression of BSI0 activation” below) in data set [3] (setting [9]) is reported as “not”.

Turning to `O=S(=O)([O-])[O-].[Zn+2]` [Zn, zinc sulfate], in data set [3], the “repression of BSI0 activation” value was “totally repress the activation”.

For “J23109: constitutive promoter (SEQ ID NO: 5) driving zur; construct denoted pBSI1 (DNA TTTACAGCTAGCTCAGTCCTAGGGACTGTGCTAGC; listed as DNA, chemistry not fully specified)”, in data set [4], the “reduction of basal expression from the ykg promoter” value was determined as 100 fold.

In the case of iron chloride [Fe], the “repression of BSI0 activation” value in data set [3] (setting [9]) was “not”.

As to “J23114: constitutive promoter (SEQ ID NO: 4) driving zur on the ykg promoter plasmid (DNA TTTATGGCTAGCTCAGTCCTAGGTACAATGCTAGC; listed as DNA, chemistry not fully specified)”, in data set [4], the “reduction of basal expression from the ykg promoter” value is 100 fold.

B1: calprotectin: Recombinant human calprotectin; neutrophil-source antimicrobial protein that sequesters zinc, manganese and iron (protein, UniProt P05109 1-93; P06702 1-114, looked up)
Protein S100-A8: MLTELEKALNSIIDVYHKYSLIKGNFHAVYRDDLKKLLETECPQYIRKKGADVWFKELDINTDGAVNFQEFLILVIKMGVAAHKKSHEESHKE
Protein S100-A9: MTCKMSQLERNIETIINTFHQYSVKLGHPDTLNQGEFKELVRKDLQNFLKKENKNEKVIEHIMEDLDTNADKQLSFEEFIMLMARLTWASHEKMHEGDEGPGHHHKPGLGEGTP
As to B1, in data set [5], the “minimal inhibitory concentration of calprotectin” value is 256 µg/mL and 250 µg/mL. Also, the “Fold-Change in Gene Expression, ykgMO” value in data set [6] is given as “up to 10.3 fold”; in data set [6] (listed as Calprotectin) it was 4.20-10.26 fold. Besides, the “Fold-Change in Gene Expression, ent operon” value in data set [7] was “up to 4.8 fold”; in data set [7] (listed as Calprotectin) it was 4.38-4.78 fold. Moreover, the “Fold-Change in Gene Expression, ABC transporter cluster” value in data set [8] was 3.80-9.44 fold.
